Laboratory results as given in patent US5965088A, “Method for providing rapid disinfection of contact lenses” (priority 1997, dated 1999).
Read-outs that look alike come from different tables or passages of the source.

What was measured:
[1] = test system: Pseudomonas aeruginosa, Staphylococcus aureus, Serratia marcescens, Candida albicans, Fusarium solani; experiment: Stand-Alone Procedure, secondary performance criteria (entrance into the regimen test); assay type: cell-based, bacteria, yeast and mold; details: for 10 minute entrance into the regimen: 10 min; for secondary performance criteria: 4.0 ppm, Example 12
Protocol: This Example illustrates the microbiocidal efficacy of solutions according to the present invention. The antimicrobial efficacy of each of various compositions for the chemical disinfection of contact lenses was evaluated. Microbial challenge inoculums were prepared using Pseudomonas aeruginosa (ATCC 9027), Staphylococcus aureus (ATCC 6538), Serratia marcescens (ATCC 13880), Candida albicans (ATCC 10231), and Fusarium solani (ATCC 36031). The test organisms were cultured on appropriate agar and the cultures were harvested using sterile DPBST (Dulbecco's Phosphate Buffered Saline plus 0.05% w/v polysorbate 80) or a suitable diluent and transferred to a suitable vessel. Spore suspensions were filtered through sterile glass wool to remove hyphal fragments. Serratia marcescens, as appropriate, was filtered (eg., through a 1.2 μ filter) to clarify the suspension. After harvesting, the suspension was centrifuged at no more than 5000× g for a maximum of 30 minutes at 20-25° C. The supernatant was poured off and resuspended in DPBST or other suitable diluent. The suspension was centrifuged a second time, and resuspended in DPBST or other suitable diluent. All challenge bacterial and fungal cell suspensions were adjusted with DPBST or other suitable diluent to 1×10^7 -10^8 cfu/mL. The appropriate cell concentration may be estimated by measuring the turbidity of the suspension, for example using a spectrophotometer at a preselected wavelength, for example 490 nm. One tube was prepared containing a minimum of 10 mL of test solution per challenge organism. Each tube of the solution to be tested was inoculated with a suspension of the test organism sufficient to provide a final count of 1.0×10^5 -10^6 cfu/mL, the volume of the inoculum not exceeding 1% of the sample volume. Dispersion of the inoculum was ensured by vortexing the sample for at least 15 seconds. The inoculated product was stored at 10-25° C. Aliquots in the amount of 1.0 mL were taken of the inoculated product for determination of viable counts after certain time periods of disinfection. […] The viable count of organisms was determined in appropriate dilutions by preparation of triplicate plates of trypticase soy (TSA) agar for bacteria and Sabouraud dextrose agar (SDA) for mold and yeast. […] The average number of colony forming units was determined on countable plates. […] The microbial reduction was then calculated at the specified time points. […]
(§1) The solutions were evaluated based on the performance requirement referred to as the "Stand-Alone Procedure for Disinfecting Products" (hereafter the "stand-alone test") and is based on the Disinfection Efficacy Testing for contact lens care products under the Draft Premarket Notification (510(k)) Guidance Document For Contact Lens Care Products dated Apr. […]

[2] = test system: Candida albicans (ATCC 10231); experiment: Antimicrobial efficacy (stand-alone log reduction), C. albicans; assay type: cell-based; details: for log reduction at 4 ppm / log reduction at 4 µg/mL: Candida albicans; for log reduction at 4 µg/mL: 4.0 ppm alexidine in ReNu MPS; for Log Reduction C. albicans: PAPB 0.0
Protocol: This Example illustrates the microbiocidal efficacy of solutions according to the present invention. The antimicrobial efficacy of each of various compositions for the chemical disinfection of contact lenses was evaluated. Microbial challenge inoculums were prepared using Pseudomonas aeruginosa (ATCC 9027), Staphylococcus aureus (ATCC 6538), Serratia marcescens (ATCC 13880), Candida albicans (ATCC 10231), and Fusarium solani (ATCC 36031). The test organisms were cultured on appropriate agar and the cultures were harvested using sterile DPBST (Dulbecco's Phosphate Buffered Saline plus 0.05% w/v polysorbate 80) or a suitable diluent and transferred to a suitable vessel. Spore suspensions were filtered through sterile glass wool to remove hyphal fragments. Serratia marcescens, as appropriate, was filtered (eg., through a 1.2 μ filter) to clarify the suspension. After harvesting, the suspension was centrifuged at no more than 5000× g for a maximum of 30 minutes at 20-25° C. The supernatant was poured off and resuspended in DPBST or other suitable diluent. The suspension was centrifuged a second time, and resuspended in DPBST or other suitable diluent. All challenge bacterial and fungal cell suspensions were adjusted with DPBST or other suitable diluent to 1×10^7 -10^8 cfu/mL. The appropriate cell concentration may be estimated by measuring the turbidity of the suspension, for example using a spectrophotometer at a preselected wavelength, for example 490 nm. One tube was prepared containing a minimum of 10 mL of test solution per challenge organism. Each tube of the solution to be tested was inoculated with a suspension of the test organism sufficient to provide a final count of 1.0×10^5 -10^6 cfu/mL, the volume of the inoculum not exceeding 1% of the sample volume. Dispersion of the inoculum was ensured by vortexing the sample for at least 15 seconds. The inoculated product was stored at 10-25° C. Aliquots in the amount of 1.0 mL were taken of the inoculated product for determination of viable counts after certain time periods of disinfection. The time points for the bacteria were 25, 50, 75, and 100% of the minimum disinfection time. Yeast and mold were tested at an additional timepoint of at least 400% of the minimum disinfection time. The suspension was mixed well by vortexing vigorously for at least 5 second. The 1.0 mL aliquots removed at the specified time intervals were subjected to a suitable series of decimal dilutions in validated neutralizing media. The suspensions were mixed vigorously and incubated for a suitable period of time to allow for neutralization of the microbial agent. The viable count of organisms was determined in appropriate dilutions by preparation of triplicate plates of trypticase soy (TSA) agar for bacteria and Sabouraud dextrose agar (SDA) for mold and yeast. The bacterial recovery plates were incubated at 30-35° C. for 2-4 days. The yeast was incubated at 20-30° C. for 2-4 days and mold recovery plates at 20-25° C. for 3-7 days. The average number of colony forming units was determined on countable plates. Countable plates refer to 30-300 cfu/plates for bacteria and yeast, and 8 to 80 cfu/plate for mold except when colonies are observed only for the 10^0 or 10^-1 dilution plates. The microbial reduction was then calculated at the specified time points. […] Following inoculation in a validated neutralizing broth and incubation for an appropriate period of time, the inoculum control must be between 1.0×10^5 -1.0×10^6 cfu/mL
as §1, with “Apr. 1, 1996, prepared by the U.S. Food and Drug Administration, Division of Ophthalmic Devices.” for “Apr.”

CCCCC(CC)CNC(=N)NC(=N)NCCCCCCNC(=N)NC(=N)NCC(CC)CCCC.Cl.Cl (stereo not drawn) [Alexidine.2HCl, 1,1 '-hexamethylenebis(5-(2-ethylhexyl)-biguanide) dihydrochloride]
10 minute entrance into the regimen ([1]; 1.0 ppm): does not pass the 10 minute entrance into the regimen
10 minute entrance into the regimen ([1]; 2.0 ppm): passes the 10 minute entrance into the regimen
secondary performance criteria ([1]; soak 2.5 min): failed in all cases
secondary performance criteria ([1]; soak 10 min): met in all cases
Log Reduction ([2]; 4.0 ppm, Ex. 8, different batch aged 19 months at 25 °C, 15 min, dihydrochloride): < 1 log
log reduction at 4 ppm ([2]; ATCC10231, 2.5 min, 4.0 ppm, aged 18 months, Exp. 1, 2.5 min, read-out: Log Reduction): 0
log reduction at 4 ppm ([2]; ATCC10231, 2.5 min, 4.0 ppm, aged 18 months, Exp. 2, 2.5 min, read-out: Log Reduction): 0.1
log reduction at 4 ppm ([2]; ATCC10231, 2.5 min, 4.0 ppm, aged 18 months, Exp. 3, 2.5 min, read-out: Log Reduction): 0
log reduction at 4 ppm ([2]; ATCC10231, 5 min, 4.0 ppm, aged 18 months, Exp. 1, 5.0 min, read-out: Log Reduction): 0
log reduction at 4 ppm ([2]; ATCC10231, 5 min, 4.0 ppm, aged 18 months, Exp. 2, 5.0 min, read-out: Log Reduction): 0.1
log reduction at 4 ppm ([2]; ATCC10231, 5 min, 4.0 ppm, aged 18 months, Exp. 3, 5.0 min, read-out: Log Reduction): 0
log reduction at 4 ppm ([2]; ATCC10231, 0.125 h, 4.0 ppm, aged 18 months, Exp. 1, 7.5 min, read-out: Log Reduction): 0.6
log reduction at 4 ppm ([2]; ATCC10231, 0.125 h, 4.0 ppm, aged 18 months, Exp. 2, 7.5 min, read-out: Log Reduction): 0.5
log reduction at 4 ppm ([2]; ATCC10231, 0.125 h, 4.0 ppm, aged 18 months, Exp. 3, 7.5 min, read-out: Log Reduction): 0.4
log reduction at 4 ppm ([2]; ATCC10231, 10 min, 4.0 ppm, aged 18 months, Exp. 1, 10.0 min, read-out: Log Reduction): 0.7
log reduction at 4 ppm ([2]; ATCC10231, 10 min, 4.0 ppm, aged 18 months, Exp. 2, 10.0 min, read-out: Log Reduction): 0.6
log reduction at 4 ppm ([2]; ATCC10231, 10 min, 4.0 ppm, aged 18 months, Exp. 3, 10.0 min, read-out: Log Reduction): 0.4
log reduction at 4 ppm ([2]; ATCC10231, 0.25 h, 4.0 ppm, Ex. 6, aged 19 months at 25 °C, 15 min): 1.9
log reduction at 4 ppm ([2]; ATCC10231, 0.25 h, 4.0 ppm, Ex. 7, different lot aged 18 months, 15 min, read-out: Log Reduction): 1
log reduction at 4 ppm ([2]; ATCC10231, 0.25 h, 4.0 ppm, Ex. 8, different batch aged 19 months at 25 °C, 15 min, read-out: Log Reduction): 0.9
log reduction at 4 ppm ([2]; ATCC10231, 0.5 h, 4.0 ppm, Ex. 6, aged 19 months at 25 °C, 30 min, read-out: Log Reduction): 2.5
log reduction at 4 ppm ([2]; ATCC10231, 0.5 h, 4.0 ppm, Ex. 7, different lot aged 18 months, 30 min, read-out: Log Reduction): 1.7
log reduction at 4 ppm ([2]; ATCC10231, 0.5 h, 4.0 ppm, Ex. 8, different batch aged 19 months at 25 °C, 30 min, read-out: Log Reduction): 1.7
log reduction at 4 ppm ([2]; ATCC10231, 40 min, 4.0 ppm, aged 18 months, Exp. 1, 40.0 min, read-out: Log Reduction): 2.1
log reduction at 4 ppm ([2]; ATCC10231, 40 min, 4.0 ppm, aged 18 months, Exp. 2, 40.0 min, read-out: Log Reduction): 1
log reduction at 4 ppm ([2]; ATCC10231, 40 min, 4.0 ppm, aged 18 months, Exp. 3, 40.0 min, read-out: Log Reduction): 1
log reduction at 4 ppm ([2]; ATCC10231, 0.75 h, 4.0 ppm, Ex. 6, aged 19 months at 25 °C, 45 min): 2.7
log reduction at 4 ppm ([2]; ATCC10231, 0.75 h, 4.0 ppm, Ex. 7, different lot aged 18 months, 45 min, read-out: Log Reduction): 1.9
log reduction at 4 ppm ([2]; ATCC10231, 0.75 h, 4.0 ppm, Ex. 8, different batch aged 19 months at 25 °C, 45 min): 1.8
log reduction at 4 µg/mL ([2]; ATCC10231, 1 h, 1 hr): 2.9
log reduction at 4 ppm ([2]; ATCC10231, 1 h, 4.0 ppm, Ex. 6, aged 19 months at 25 °C, 60 min, read-out: Log Reduction): 2.8
log reduction at 4 ppm ([2]; ATCC10231, 1 h, 4.0 ppm, Ex. 7, different lot aged 18 months, 60 min, read-out: Log Reduction): 2.1
log reduction at 4 ppm ([2]; ATCC10231, 1 h, 4.0 ppm, Ex. 8, different batch aged 19 months at 25 °C, 60 min, read-out: Log Reduction): 1.9
log reduction at 4 µg/mL ([2]; ATCC10231, 2 h, 2 hr): 4.3
log reduction at 4 µg/mL ([2]; ATCC10231, 3 h, 3 hr): > 4.7
log reduction at 4 µg/mL ([2]; ATCC10231, 4 h, 4 hr): 3.9
log reduction at 4 ppm ([2]; ATCC10231, 4 h, 4.0 ppm, Ex. 6, aged 19 months at 25 °C, 4 h, read-out: Log Reduction): 3.4
log reduction at 4 ppm ([2]; ATCC10231, 4 h, 4.0 ppm, Ex. 7, different lot aged 18 months, 4 hrs): 3.1
log reduction at 4 ppm ([2]; ATCC10231, 4 h, 4.0 ppm, Ex. 8, different batch aged 19 months at 25 °C, 4 hrs, read-out: Log Reduction): 2.6
log reduction at 4 µg/mL ([2]; ATCC10231, 24 h, 24 hr): 4.6
Log Reduction C. albicans ([2]; alexidine 0.5 ppm, 5 min): 0.3 log
Log Reduction C. albicans ([2]; alexidine 0.5 ppm, 15 min): 1.0 log
Log Reduction C. albicans ([2]; alexidine 0.5 ppm, 30 min): -0.2 log
Log Reduction C. albicans ([2]; alexidine 0.5 ppm, 60 min): -0.1 log
Log Reduction C. albicans ([2]; alexidine 2.6 ppm, 5 min): 0.4 log
Log Reduction C. albicans ([2]; alexidine 2.6 ppm, 15 min): 0.5 log
Log Reduction C. albicans ([2]; alexidine 2.6 ppm, 30 min): 0.5 log
Log Reduction C. albicans ([2]; alexidine 2.6 ppm, 60 min): 1.4 log
